Values quoted from earlier work in US20210023267A1, “POLYMER-PERMEATED GRAFTS AND METHODS OF MAKING AND USING THE SAME” (BIOAESTHETICS CORPORATION, priority 2018, published 2021).
≈ marks a conversion by molar mass, not a printed value. Like-named read-outs stand apart in the source and are kept apart here.

Test system: S. aureus

In the case of `CN[C@H](CC(C)C)C(=O)N[C@H]1C(=O)N[C@@H](CC(N)=O)C(=O)N[C@H]2C(=O)N[C@H]3C(=O)N[C@H](C(=O)N[C@H](C(=O)O)c4cc(O)cc(O)c4-c4cc3ccc4O)[C@H](O)c3ccc(c(Cl)c3)Oc3cc2cc(c3O[C@@H]2O[C@H](CO)[C@@H](O)[C@H](O)[C@H]2O[C@H]2C[C@](C)(N)[C@H](O)[C@H](C)O2)Oc2ccc(cc2Cl)[C@H]1O` [vancomycin], the minimum inhibitory concentration (S. aureus) is given as 1 µg/mL (≈ 0.69 µM) and the minimum inhibitory concentration (S. aureus strains with complete resistance to vancomycin) is given as 16 µg/mL (≈ 11 µM).
